Reference: patent US20080299140A1, “Immunogenic Composition and Peptide Sequences for Prevention and Treatment of an Hsv Condition” (priority 2002, published 2008)
Residue numbers refer to the chain shown, from its start. Read-outs that look alike come from different tables or passages of the source.

Key:
[1] = target: T1, DRB3=HLA-DR(α1*0101,α3*0101) (Homo sapiens, UniProt P01903+P79483); test: HLA-DR specific binding assay, DRB3 (DR52)
T1 construct: endogenous in cells; host or cells: STEILIN or 0206AD (both typed DRB3*0101)

[2] = target: T2, DRB5=HLA-DR(α1*0101,α5*0101) (Homo sapiens, UniProt P01903+Q30154); test: biochemical; format: binding; conditions: Table V; […]; read-out: IC50 DRB5
T2 construct: endogenous in cells; host or cells: EBV homozygous human B cell line

[3] = system: HLA-DR and HLA-DP molecules; test: MHC class II binding assays, panel of twelve HLA class II molecules (number of alleles bound); conditions: number of the twelve class II MHC alleles bound; title: Threshold 600 nM/5 alleles
[4] = target: T3, DP402 DP (α1*0101, α1*0402) (Homo sapiens, UniProt P04440+P20036, A65V/A84D/A85E/L207M); test: biochemical; format: binding
T3 sequence (P20036 29-260): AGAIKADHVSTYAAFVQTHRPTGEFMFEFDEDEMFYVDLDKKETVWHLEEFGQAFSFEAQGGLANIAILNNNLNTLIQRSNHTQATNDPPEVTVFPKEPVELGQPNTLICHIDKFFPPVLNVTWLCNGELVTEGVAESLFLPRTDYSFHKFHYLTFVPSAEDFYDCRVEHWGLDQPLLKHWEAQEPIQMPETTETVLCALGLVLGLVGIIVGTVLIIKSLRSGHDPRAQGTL
T3 sequence (P04440 30-258 A65V/A84D/A85E): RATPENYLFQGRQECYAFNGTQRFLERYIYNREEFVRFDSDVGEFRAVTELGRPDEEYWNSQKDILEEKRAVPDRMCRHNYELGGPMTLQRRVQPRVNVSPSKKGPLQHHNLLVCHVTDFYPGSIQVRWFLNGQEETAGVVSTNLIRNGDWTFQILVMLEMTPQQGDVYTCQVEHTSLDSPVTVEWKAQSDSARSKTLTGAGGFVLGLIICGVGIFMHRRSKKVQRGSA

[5] = target: T4, DR11=HLA-DR(α1*0101,α1*1101) (Homo sapiens, UniProt P01903+P01911, A100R/A169T/A87E/I96F/K41T/L162R/M171V/P40S/Q125H/Q178H/Q39Y/Q99D/R42S/S66Y/T262R/V115G/W38E); test: biochemical; format: binding
T4 construct: endogenous in cells; host or cells: SWEIG (EBV homozygous B cell line)

[6] = target: T5, DR4=HLA-DR(α1*0101,α1*0401) (Homo sapiens, UniProt P01903+P01911, A100K/A169T/F76Y/I96L/K127E/L162R/M171V/N62H/P40V/Q125Y/R42H/S133A/S149N/S66Y/V115G/V209L/W38E); test: biochemical; format: binding
T5 construct: endogenous in cells; host or cells: BOLETH (EBV homozygous B cell line)

[7] = target: T6, DR15=HLA-DR(α1*0101,α1*1501) (Homo sapiens, UniProt P01903+P01911); test: HLA-DR specific binding assay, DR15
T6 construct: endogenous in cells; host or cells: EBV homozygous human B cell line

[8] = target: T7, DR3=HLA-DR(α1*0101,α1*0301) (Homo sapiens, UniProt P01903+P01911, A100K/A102G/A103R/A169T/F55Y/I96L/K41T/L162R/M171V/P40S/Q125H/Q178H/Q39Y/R42S/S66N/T106N/T262R/W38E/Y61H); test: HLA-DR specific binding assay, DR3
T7 construct: endogenous in cells; host or cells: STEILIN (EBV homozygous B cell line)

[9] = target: T8, DRB4=HLA-DR(α1*0101,α4*0101) (Homo sapiens, UniProt P01903+P13762, G164S); test: HLA-DR specific binding assay, DRB4 (DR53)
T8 construct: endogenous in cells

[10] = target: T9, DR1=HLA-DR(α1*0101,α1*0101) (Homo sapiens, UniProt P01903+P01911, A100R/D57E/F55L/F60I/F76Y/I96L/L162R/M171V/P40L/Q125E/R42F/V115G/Y59C); test: biochemical; format: binding; conditions: […]
T9 construct: endogenous in cells; host or cells: EBV homozygous human B cell line

[11] = target: T10, DR13=HLA-DR(α1*0101,α1*1301) (Homo sapiens, UniProt P01903+P01911, A100E/A169T/K41T/L162R/M171V/P40S/Q125H/Q178H/Q39Y/Q99D/R42S/S66N/T262R/W38E/Y61H); test: HLA-DR specific binding assay, DR13
T10 construct: endogenous in cells; host or cells: 0206AD (EBV homozygous B cell line)

[12] = target: T11, DP401=HLA-DP(α1*0101,α1*0401) (Homo sapiens, UniProt P04440+P20036); test: biochemical; format: binding
T11 sequence (P20036 32-260 limits assumed): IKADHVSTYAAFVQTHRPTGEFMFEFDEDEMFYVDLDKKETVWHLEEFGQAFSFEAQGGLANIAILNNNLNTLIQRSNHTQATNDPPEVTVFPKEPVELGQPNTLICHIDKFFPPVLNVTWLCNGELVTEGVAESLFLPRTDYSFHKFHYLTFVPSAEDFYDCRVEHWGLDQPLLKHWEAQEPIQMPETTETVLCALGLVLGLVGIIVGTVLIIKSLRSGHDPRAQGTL
T11 sequence (P04440 30-258): T3 sequence (P04440 30-258 A65V/A84D/A85E) with V36A, D55A, E56A

[13] = target: T12, DR7=HLA-DR(α1*0101,α1*0701) (Homo sapiens, UniProt P01903+P01911, A100R/A102G/A103Q/D57E/D86V/E43K/F76Y/K127E/L162R/M171V/P40G/Q125H/Q99D/R33Q/R42Y/R54Q/S133A/S66F/T210M/V115G/Y107V/Y59L/Y89S); test: HLA-DR specific binding assay, DR7
T12 construct: endogenous in cells; host or cells: EBV homozygous human B cell line

[14] = system: lymphocytes obtained from HSV-1 infected H-2^d mice; test: HSV-primed T-cell responses to gD peptides in HSV-1 infected mice; format: cell-based; conditions: HSV-1 infected H-2^d mice
Method: Twelve days after the second immunization, spleen and inguinal lymph nodes (LN) were removed and placed into ice-cold serum free HL-1 medium supplemented with 15 mM HEPES, 5×10^−5 M β-mercaptoethanol, 2 mM glutamine, 50 U of penicillin and 50 μg of streptomycin (GIBCO-BRL, Grand Island, N.Y.) (complete medium, CM). The cells were cultured in 96-well plates at 5×10^5 cells/well in CM, with recall or control peptide at 30, 10, 3, 1, or 0.3 μg/ml concentration, as previously described in (BenMohamed et al., 2000 and 2002). The cell suspensions were incubated for 72 h at 37° C. in 5% CO2. One μCi (micro-curie) of (^3H)-thymidine (Dupont MEN, Boston, Mass.) was added to each well during the last 16 h of culture. The incorporated radioactivity was determined by harvesting cells onto glass fiber filters and counted on a Matrix 96 direct ionization-counter (Packard Instruments, Meriden, Conn.). Results were expressed as the mean cpm of cell-associated (^3H)-thymidine recovered from wells containing Ag minus the mean cpm of cell-associated (^3H)-thymidine recovered from wells without Ag (A cpm) (average of triplicate). The Stimulation Index (SI) was calculated as the mean cpm of cell-associated (^3H)-thymidine recovered from wells containing Ag divided by the mean cpm of cell-associated (^3H)-thymidine recovered from wells without Ag (average of triplicate). For all experiments the irrelevant control peptide gB141-165 and the T-cell mitogen Concanavalin A (ConA) (Sigma, St. Louis, Mo.) were used as negative and positive controls, respectively. Proliferation results were confirmed by repeating each experiment twice. A T-cell proliferative response was considered positive when A cpm>1000 and SI>2.
To define the fine specificity of broadly reactive T-cells associated with viral immunity and to explore immunodominance in the context of HSV infection, proliferation of lymphocytes obtained from twenty HSV-1 infected H-2^d mice were evaluated using the twelve gD peptides as Ag (FIG. 6). […] Despite a difference between individual mice, a unique array of T-cell responses was identified for each of the twenty infected mice analyzed.

[15] = IC50, DRD3, Class II MHC allele DRD3 (so in the source)
[16] = Class II MHC allele DR11, read-out: IC50, DR11
[17] = Table V, […], read-out: IC50 DR11
[18] = Class II MHC allele DR4, read-out: IC50, DR4
[19] = Table V, […], read-out: IC50 DR4
[20] = IC50, DR3, Class II MHC allele DR3
[21] = Class II MHC allele DR1, read-out: IC50, DR1

T1 sequence (P79483 30-266, other chains not shown): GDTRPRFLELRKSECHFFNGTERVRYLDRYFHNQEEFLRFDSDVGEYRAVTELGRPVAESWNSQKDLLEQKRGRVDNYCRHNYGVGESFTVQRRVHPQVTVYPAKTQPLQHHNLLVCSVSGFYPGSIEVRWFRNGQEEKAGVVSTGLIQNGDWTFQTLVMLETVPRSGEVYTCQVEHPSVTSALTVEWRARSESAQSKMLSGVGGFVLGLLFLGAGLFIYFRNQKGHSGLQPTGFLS
T2 sequence (Q30154 30-266, other chains not shown): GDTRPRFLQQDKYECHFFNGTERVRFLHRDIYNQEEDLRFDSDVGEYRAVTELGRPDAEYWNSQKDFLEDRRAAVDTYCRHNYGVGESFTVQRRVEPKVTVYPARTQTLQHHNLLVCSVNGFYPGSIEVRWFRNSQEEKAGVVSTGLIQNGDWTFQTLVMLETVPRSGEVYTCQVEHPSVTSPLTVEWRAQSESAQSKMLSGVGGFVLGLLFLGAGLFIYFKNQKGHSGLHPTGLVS

Row | Compound | IC50 [1, 15] | IC50 ([1]; IC50 DRB3, Table V, […]) | IC50 [2] | Range [3] | IC50 ([4]; Class II MHC allele DP402) | IC50 ([4]; Table V, […]) | IC50 [5, 16] | IC50 [5, 17] | IC50 [6, 18] | IC50 [6, 19] | IC50 [7] | IC50 [8, 20] | IC50 ([8]; IC50 DR3, Table V, […]) | IC50 [9] | IC50 ([10]; Table V, read-out: IC50 DR1) | IC50 [10, 21] | IC50 [11] | IC50 ([12]; Class II MHC allele DP401) | IC50 ([12]; Table V, […]) | IC50 [13] | further results
1 | CSCC[C@H](NC(=O)[C@@H](NC(=O)[C@H](Cc1ccc(O)cc1)NC(=O)[C@H](CCCNC(=N)N)NC(=O)[C@@H](N)Cc1ccccc1)C(C)C)C(=O)N[C@@H](CCCNC(=N)N)C(=O)N[C@@H](CC(C)C)C(=O)N[C@@H](CCC(N)=O)C(=O)N[C@@H](CO)C(=O)N[C@@H](CC(N)=O)C(=O)N1CCC[C@H]1C(=O)N[C@@H](CCSC)C(=O)N[C@@H](CCCCN)C(=O)N[C@@H](C)C(=O)N[C@@H](CC(C)C)C(=O)N[C@@H](Cc1ccc(O)cc1)C(=O)N1CCC[C@H]1C(=O)N[C@@H](CC(C)C)C(=O)N[C@H](C(=O)N[C@H](C(=O)N[C@@H](CCCCN)C(=O)N[C@@H](CCC(=O)O)C(=O)N[C@@H](CC(C)C)C(=O)N[C@@H](CCCCN)C(=O)N[C@@H](CC(N)=O)C(=O)N1CCC[C@H]1C(=O)N[C@H](C(=O)N[C@@H](CC(N)=O)C(=O)N1CCC[C@H]1C(=O)N[C@@H](CC(=O)O)C(=O)N[C@@H](C)C(=O)N[C@@H](CO)C(=O)NCC(=O)N[C@@H](CCC(=O)O)C(=O)NCC(=O)O)[C@@H](C)O)[C@@H](C)O)[C@@H](C)O [HSV 8] | 55000 nM | 55000 nM | 2 nM | 10 | 32 nM | 32 nM | 4 nM | 4 nM | 12 nM | 12 nM | 3 nM | 4780 nM | 4780 nM | 232 nM | 2 nM | 2 nM | 314 nM | 107 nM | 107 nM | 20 nM | –
2 | CSCC[C@H](NC(=O)[C@H](CCCCN)NC(=O)[C@H](CC(C)C)NC(=O)[C@H](CO)NC(=O)[C@H](C)NC(=O)[C@H](CC(=O)O)NC(=O)[C@@H](NC(=O)[C@H](CC(C)C)NC(=O)[C@H](C)NC(=O)[C@H](Cc1ccc(O)cc1)NC(=O)[C@@H](N)CCCCN)C(C)C)C(=O)N[C@@H](C)C(=O)N[C@@H](CC(=O)O)C(=O)N1CCC[C@H]1C(=O)N[C@@H](CC(N)=O)C(=O)N[C@@H](CCCNC(=N)N)C(=O)N[C@@H](Cc1ccccc1)C(=O)N[C@@H](CCCNC(=N)N)C(=O)NCC(=O)N[C@@H](CCCCN)C(=O)N[C@@H](CC(=O)O)C(=O)N[C@@H](CC(C)C)C(=O)N1CCC[C@H]1C(=O)O [HSV 29] | 1400 nM | 1400 nM | 8 nM | 3 | 1630 nM | 1630 nM | 5250 nM | 5250 nM | 82 nM | 82 nM | 24500 nM | 120 nM | 120 nM | 52500 nM | 1230 nM | 1230 nM | > 100000 nM | 17500 nM | 17500 nM | 894 nM | IC50 ([11]; read-out: IC50, DR13, Class II MHC allele DR13): > 100000 nM
3 | CC[C@H](C)[C@H](NC(=O)[C@@H](N)[C@@H](C)O)C(=O)N[C@@H](C)C(=O)N[C@@H](Cc1c[nH]c2ccccc12)C(=O)N[C@@H](Cc1ccccc1)C(=O)N[C@@H](CCCNC(=N)N)C(=O)N[C@@H](CCSC)C(=O)NCC(=O)NCC(=O)N[C@@H](CC(N)=O)C(=O)N[C@@H](CS)C(=O)N[C@@H](C)C(=O)N[C@H](C(=O)N1CCC[C@H]1C(=O)N[C@H](C(=O)N[C@H](C(=O)N[C@H](C(=O)N[C@@H](CCSC)C(=O)N[C@@H](CCC(=O)O)C(=O)N[C@@H](Cc1ccc(O)cc1)C(=O)N[C@H](C(=O)N[C@@H](CCC(=O)O)C(=O)N[C@@H](CS)C(=O)N[C@@H](CO)C(=O)N[C@@H](Cc1ccc(O)cc1)C(=O)N[C@@H](CC(N)=O)C(=O)N[C@@H](CCCCN)C(=O)N[C@@H](CO)C(=O)O)[C@@H](C)O)C(C)C)[C@@H](C)O)[C@@H](C)CC)[C@@H](C)CC [HSV 41] | – | – | – | 8 | – | – | – | – | – | – | – | – | – | – | – | – | – | – | – | – | immunodominance of epitopes in HSV-primed T-cell responses [14]: subdominant epitopes
